The source of these data is publication PMC9150076 (Journal of Medicinal Chemistry, 2022).

Like-named read-outs stand apart in the source and are kept apart here.

The target in one series is ABHD12 (Mus musculus, UniProt Q99LR1).
A further series can be described thus: Water solubility. The class given is physicochemical. Particulars: distilled water, room temperature. As for the experimental part:
6.9 software. Chromatographic separation was obtained using a Kinetex C18 column (150 × 4.6 mm) with a 5 μm particle size and gradient elution with a binary solution; (eluent A: ACN, eluent B: water, both eluents were acidified with formic acid 0.1% v/v). The analysis started with 5% of A (from t = 0 to t = 1 min), then A was increased to 95% (from t = 1 to t = 10 min), then kept at 95% (from t = 10 to t = 19 min), and finally returned to 5% of eluent A in 1.0 min. The flow rate was 0.6 mL/min, and injection volumes were 10 μL. The instrument operated in positive mode, and parameters were detector 1450 V, drying gas pressure 35.0 psi, desolvation temperature 300.0 °C, nebulizing gas 45.0 psi, needle 5550 V and shield 350 V. Nitrogen was used as a nebulizer gas and drying gas. Collision-induced dissociation was performed using argon as the collision gas at a pressure of 1.8 mTorr in the collision cell. The transitions as well as the capillary voltage and the collision energy used are appropriated for each tested compound. Quantification of the single compound was made by comparison with appropriate calibration curves realized with standard solutions in methanol. LC analyses of PAMPA, metabolic stability, and stability tests (in MeOH, PBS, human plasma) were performed by UV/LC–MS with an Agilent 1100 LC/MSD VL system ((G1946C) Agilent Technologies, Palo Alto, CA) using a Phenomenex Kinetex C18–100 Å (150 × 4.6 mm, 5 μm particle size) at room temperature. Analyses were carried out with the same chromatographic conditions reported above.
Each sample was mixed at room temperature in a shaker water bath for 24 h.[62] The resulting suspension was filtered through a 0.45 μm nylon filter (Acrodisc), and the solubilized compound was quantified in triplicate using the LC–MS/MS method reported above, by comparison with the appropriate calibration curve that was obtained from samples of the compound dissolved in methanol at different concentrations.

Series [1] relates to PDAC3 cells. In words: Apoptosis assay, Annexin-V staining, PDAC3. Type of series: cell-based, human. Particulars: PDAC3, drug at IC50, 72 h, compared to untreated cells.
The subject of series [2] is PDAC2 primary cell culture. In words: Growth inhibition, SRB assay, PDAC2. The class given is cell-based. The following applies: Homo sapiens, PDAC-2, PDAC2, 72 h, read-out: IC50 antiproliferative activity. For orientation: In SRB staining, fixed cells bind dye roughly in proportion to their protein.
Series [3] has as its system PDAC3 cells. In words: Wound-healing/migration assay, PDAC3. The class given is cell-based, human. The following applies: PDAC3, 20 h, drug at 5× IC50; control 59 ± 8%.
Series [4] relates to PDAC3 primary cell culture. Description: Growth inhibition, SRB assay, PDAC3. The following applies: Homo sapiens, PDAC-3; PDAC3, 72 h, SRB; read-out: IC50 antiproliferative activity. The class given is cell-based, human.
A further series deals with FAAH (Mus musculus, UniProt O08914). The class given is biochemical.
Chain of FAAH (O08914 whole entry): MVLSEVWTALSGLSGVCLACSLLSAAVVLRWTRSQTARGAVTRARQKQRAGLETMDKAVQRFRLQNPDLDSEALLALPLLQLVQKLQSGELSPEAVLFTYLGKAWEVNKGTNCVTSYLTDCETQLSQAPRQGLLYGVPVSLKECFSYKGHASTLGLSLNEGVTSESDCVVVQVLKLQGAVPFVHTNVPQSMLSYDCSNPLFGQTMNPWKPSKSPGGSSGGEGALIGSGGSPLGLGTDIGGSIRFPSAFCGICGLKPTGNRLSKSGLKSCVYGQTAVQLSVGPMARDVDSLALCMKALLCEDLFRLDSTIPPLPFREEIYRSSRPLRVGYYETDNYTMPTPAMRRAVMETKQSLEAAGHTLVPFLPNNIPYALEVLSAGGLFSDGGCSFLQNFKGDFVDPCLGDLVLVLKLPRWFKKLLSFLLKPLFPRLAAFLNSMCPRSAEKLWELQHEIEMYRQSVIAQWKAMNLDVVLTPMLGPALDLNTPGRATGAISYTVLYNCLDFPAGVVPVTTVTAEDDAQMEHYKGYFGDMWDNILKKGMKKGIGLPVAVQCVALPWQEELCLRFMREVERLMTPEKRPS

Chain of ABHD12 (Q99LR1 whole entry): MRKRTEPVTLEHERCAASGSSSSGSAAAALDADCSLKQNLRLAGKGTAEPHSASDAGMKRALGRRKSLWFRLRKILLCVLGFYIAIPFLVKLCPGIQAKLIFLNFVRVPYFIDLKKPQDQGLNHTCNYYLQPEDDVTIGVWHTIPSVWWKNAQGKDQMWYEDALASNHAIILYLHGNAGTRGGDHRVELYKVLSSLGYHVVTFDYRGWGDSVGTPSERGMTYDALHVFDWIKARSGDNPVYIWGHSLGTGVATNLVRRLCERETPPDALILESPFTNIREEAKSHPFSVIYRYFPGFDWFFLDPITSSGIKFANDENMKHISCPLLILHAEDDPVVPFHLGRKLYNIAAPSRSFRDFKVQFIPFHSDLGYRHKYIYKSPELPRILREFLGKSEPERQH

One may read the solubility as how much of the substance goes into solution per volume. Broadly, the IC50 is the point on the concentration scale where inhibition reaches its midpoint. In the case of `O=C(c1cc(O)ccc1F)N1CCC(Cc2cccc(Oc3cc(C(F)(F)F)ccn3)c2)CC1` [Compound 13, (2-Fluoro-5-hydroxyphenyl)(4-(3-((4-(trifluoromethyl)pyridin-2-yl)oxy)benzyl)piperidin-1-yl)methanone], on ABHD12, the “TAMRA-FP labelling of ABHD12 band (ABPP)” value is listed as “without affecting”. The solubility at 24 h is below 1 ng/mL in “Water solubility” (read-out: water solubility) and below 2.11 nM in the series “Water solubility” (read-out: water solubility (logS)). The induction of apoptosis result in the series on PDAC3 cells [1] is on record as “strongly enhanced apoptosis induction”. Besides, the results for the IC50 in series [2] and in series [4] were 12.6 µM and 7.25 µM, respectively. In addition, the scratch area closed in the series on PDAC3 cells [3] was 38 ± 6%. On FAAH, the “TAMRA-FP labelling of FAAH band (ABPP)” value is on record as “without affecting”.
